DC50 and Dmax data for 20 compounds are collected here from patent US20240327381A1, “Compounds and Compositions for Selective Degradation of Engineered Proteins” (Celgene Corporation, priority 2023, published 2024).

Each structure is given as a SMILES string. Where two headings read alike, the source gives them in different places.

Assay [1] addresses T1, IKZF1 ZNF2_ZNF3 Q1F degron-tagged CD19 CAR (Homo sapiens, UniProt Q13422, Q146F).
T1 construct: ZNF2_ZNF3 Q1F degron (GERPFFCNQCGASFTQKGNLLRHIKLHSGEKPFKCHLCNYACRRRDALTGHLRTHS); fused on or other part: anti-CD19 scFv, CD28 transmembrane domain, 4-1BB costimulatory domain, CD3 zeta signaling domain (the CAR that carries the degron), and Nluc
In words: Degradation of Q1F degron-tagged CD19 CAR in Jurkat cells (flow cytometry of CAR levels). The format is cell-based. The conditions noted are these: for DC50: Jurkat cells expressing CD19 CAR tagged with IKZF1 ZNF2_ZNF3 Q1F, 18 hours at 37° C., CAR levels normalized to untreated cells, read-out: Q1F Jurkat IC50; for Dmax: read-out: Q1F Jurkat-YMax. An excerpt:
Q1F degron-targeting compounds were screened in Jurkat cells engineered to express a IKZF1 ZNF2_ZNF3 Q1F. The cell line was generated with lentiviral vectors containing CD19 CARs tagged with IKZF1 ZNF2_ZNF3 QIF Nluc, which were transduced into Jurkat cells. The CD19 CAR comprised an anti-CD19 scFv, a CD28 transmembrane domain, a 4-1BB costimulatory domain, a CD3ζ signaling domain, and a ZNF2_ZNF3 Q1F degron (GERPFFCNQCGASFTQKGNLLRHIKLHSGEKPFKCHLCNYACRRRDALTGHLRTHS; SEQ ID NO: 1; Q1F substitution underlined). Transduced cells were treated with a titration of each small molecule or no drug and then incubated at 37° C. for 18 hours. Cells were washed and stained with appropriate staining reagent to measure CAR levels. The cells were incubated at 4° C. in the staining reagents for 20 mins and then washed 3 times before being read on the flow cytometer. CAR levels were normalized to cells that had not been treated with drug. EC50 and Ymin values were calculated using the resulting titration curve. This identified small molecules that potently degraded the Q1F degron-tagged CARs (Table 1).
(§1) To determine the EC50 value of a compound for the degradation of a given substrate (concentration of compound that achieves half the maximum degradation observed), a four-parameter logistic model (sigmoidal dose-response model) (FIT=(A+{(B−A)/1+[(C/x)D]})) where C is the inflection point (EC50), D is the […], and A and B are the low and high limits of the fit, respectively) was used. All substrate degradation curves were processed and evaluated using ActivityBase (IDBS), a data analysis software package. Ymax is the % protein degraded (Ymin=100−Ymax and is minimum percent protein remaining).

For assay [2], the target named is T2, Helios (Homo sapiens, UniProt Q9UKS7).
T2 construct: endogenous in cells; host or cells: Jurkat cells, CRISPR/Cas9 knock-in of HiBit at the IKZF2 locus
Nature of the assay: Helios degradation in Jurkat/Helios/HiBit cells (Nano-Glo luminescence). Type of assay: cell-based. As to conditions: 18 hr, read-out: Helios Jurkat Hibit IC50. The protocol: For Helios, a stable Jurkat cell line was engineered using CRISPR/Cas9 to insert an in-frame HiBit tag into the carboxy-terminal reading frame of the IKZF2 gene. The sequence of human Helios is shown below:
Test compounds were transferred to 1536 well plates using an acoustic dispenser, and Jurkat/Helios/HiBit cells in DMEM/10% FCS were plated at 10,000 cells/well in a final volume of 5 μL. Cells were incubated at 37 C, 95% RH for 18 hr. Luciferase activity was measured by adding 2 μL/well of Nano-Glo reagent (Promega), incubating at RT for 30 min, and reading luminescence on a microtiter plate reader.
as §1
A general note: The HiBiT peptide binds its large partner to form an active luciferase.

The mark [3] stands for this setting: Ymax is the % protein degraded, Jurkat cells expressing Q1F degron-tagged CD19 CAR, 18 hours.

T1 sequence (Q13422 whole entry Q146F, the tested form may be a part): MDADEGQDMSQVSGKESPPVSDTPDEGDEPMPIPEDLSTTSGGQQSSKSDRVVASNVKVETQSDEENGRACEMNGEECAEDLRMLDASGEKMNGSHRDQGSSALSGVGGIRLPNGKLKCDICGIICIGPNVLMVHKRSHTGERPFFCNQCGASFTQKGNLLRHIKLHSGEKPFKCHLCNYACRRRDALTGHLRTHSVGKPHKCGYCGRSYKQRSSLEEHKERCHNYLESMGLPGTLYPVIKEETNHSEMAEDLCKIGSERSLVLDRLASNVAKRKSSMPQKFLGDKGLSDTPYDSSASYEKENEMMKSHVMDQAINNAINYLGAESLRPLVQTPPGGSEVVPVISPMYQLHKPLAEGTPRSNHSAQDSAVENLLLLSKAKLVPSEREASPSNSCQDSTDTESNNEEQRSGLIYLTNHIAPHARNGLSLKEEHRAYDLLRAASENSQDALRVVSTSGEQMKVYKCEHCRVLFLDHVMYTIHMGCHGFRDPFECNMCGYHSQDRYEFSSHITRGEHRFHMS
T2 sequence (Q9UKS7 whole entry): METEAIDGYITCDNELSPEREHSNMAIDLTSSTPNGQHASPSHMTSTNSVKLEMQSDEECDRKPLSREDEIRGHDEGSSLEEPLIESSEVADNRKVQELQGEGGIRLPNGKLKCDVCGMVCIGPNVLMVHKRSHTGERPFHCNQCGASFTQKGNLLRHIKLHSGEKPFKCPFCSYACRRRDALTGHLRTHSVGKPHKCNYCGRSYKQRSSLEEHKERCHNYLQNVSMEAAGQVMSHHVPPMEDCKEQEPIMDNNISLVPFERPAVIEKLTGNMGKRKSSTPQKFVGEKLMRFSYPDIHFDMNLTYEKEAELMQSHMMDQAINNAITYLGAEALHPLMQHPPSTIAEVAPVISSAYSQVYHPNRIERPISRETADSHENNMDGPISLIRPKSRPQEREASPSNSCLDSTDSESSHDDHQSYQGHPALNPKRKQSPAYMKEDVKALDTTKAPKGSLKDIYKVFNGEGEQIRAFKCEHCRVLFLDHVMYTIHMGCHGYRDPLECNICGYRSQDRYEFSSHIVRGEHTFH
T2 sequence (Q96SW2 whole entry, further chain): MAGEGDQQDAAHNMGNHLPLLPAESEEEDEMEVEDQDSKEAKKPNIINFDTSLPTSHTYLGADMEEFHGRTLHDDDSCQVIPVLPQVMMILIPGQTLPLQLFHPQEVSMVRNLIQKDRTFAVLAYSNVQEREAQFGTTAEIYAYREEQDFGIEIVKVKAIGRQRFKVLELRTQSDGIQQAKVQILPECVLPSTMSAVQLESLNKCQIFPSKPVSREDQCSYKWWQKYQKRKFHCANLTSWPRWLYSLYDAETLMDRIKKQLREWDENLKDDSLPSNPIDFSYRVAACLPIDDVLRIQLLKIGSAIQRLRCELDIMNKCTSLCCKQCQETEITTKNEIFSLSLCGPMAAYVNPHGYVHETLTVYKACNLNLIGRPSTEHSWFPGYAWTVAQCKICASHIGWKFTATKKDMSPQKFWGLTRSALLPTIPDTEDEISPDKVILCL
T2 sequence (Q16531 whole entry partner): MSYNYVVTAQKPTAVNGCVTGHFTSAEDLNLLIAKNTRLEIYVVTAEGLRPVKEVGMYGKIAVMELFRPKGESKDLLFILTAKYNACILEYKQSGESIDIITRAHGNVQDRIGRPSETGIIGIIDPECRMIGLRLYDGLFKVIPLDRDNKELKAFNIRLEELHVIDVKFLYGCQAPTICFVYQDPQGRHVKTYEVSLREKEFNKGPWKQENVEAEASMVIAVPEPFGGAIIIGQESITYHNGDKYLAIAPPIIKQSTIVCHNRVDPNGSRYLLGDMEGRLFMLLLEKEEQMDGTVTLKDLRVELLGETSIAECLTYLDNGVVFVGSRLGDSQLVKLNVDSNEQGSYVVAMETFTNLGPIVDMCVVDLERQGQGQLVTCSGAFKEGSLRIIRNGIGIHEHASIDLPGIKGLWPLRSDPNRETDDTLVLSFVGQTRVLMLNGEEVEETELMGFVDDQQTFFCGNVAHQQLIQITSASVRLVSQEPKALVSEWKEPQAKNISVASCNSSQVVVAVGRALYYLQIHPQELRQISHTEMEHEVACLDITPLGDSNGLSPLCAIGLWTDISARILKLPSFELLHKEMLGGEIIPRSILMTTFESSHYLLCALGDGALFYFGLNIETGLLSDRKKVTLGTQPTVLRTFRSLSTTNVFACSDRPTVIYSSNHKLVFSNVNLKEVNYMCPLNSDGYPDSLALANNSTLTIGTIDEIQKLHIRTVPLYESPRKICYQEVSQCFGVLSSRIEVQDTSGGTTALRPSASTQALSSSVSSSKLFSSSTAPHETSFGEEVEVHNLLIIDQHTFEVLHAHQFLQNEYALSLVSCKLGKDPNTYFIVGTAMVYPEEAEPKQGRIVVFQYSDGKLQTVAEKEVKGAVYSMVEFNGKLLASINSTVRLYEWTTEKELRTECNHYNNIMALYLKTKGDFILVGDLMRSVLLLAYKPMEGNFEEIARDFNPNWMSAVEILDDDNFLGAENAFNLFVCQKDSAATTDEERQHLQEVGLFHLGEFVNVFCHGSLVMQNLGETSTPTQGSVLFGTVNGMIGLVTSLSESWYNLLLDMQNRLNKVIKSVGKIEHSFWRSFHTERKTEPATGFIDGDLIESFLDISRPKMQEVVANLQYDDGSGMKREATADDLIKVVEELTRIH

In the case of `COc1cccc(CN2CCC(O)(c3c(F)cc4c(c3F)CN(C3CCC(=O)NC3=O)C4=O)CC2)n1` (stereo not drawn) [Compound 38, 3-(4,6-difluoro-5-(4-hydroxy-1-((6-methoxypyridin-2-yl)methyl)piperidin-4-yl)-1-oxoisoindolin-2-yl)piperidine-2,6-dione], the results for the DC50 in assay [1] and in assay [2] were 24.5 nM and no less than 10000 nM, respectively. The Dmax in assay [1] (setting [3]) is 70.7%.

Take `Cc1cc(-c2c(F)cc3c(c2F)CN(C2CCC(=O)NC2=O)C3=O)nc(N)c1C` (stereo not drawn) [Compound 93, 3-(5-(6-amino-4,5-dimethylpyridin-2-yl)-4,6-difluoro-1-oxoisoindolin-2-yl) piperidine-2,6-dione]: the results for the DC50 in assay [1] and in assay [2] were 217 nM and no less than 10000 nM, respectively. The Dmax in assay [1] (Jurkat, 18 h) was 69.1%.

For `O=C1CCC(N2Cc3c(cc(F)c(C4CCN(Cc5ccnn5-c5ccccc5)CC4)c3F)C2=O)C(=O)N1` (stereo not drawn) [Compound 9, 3-(4,6-difluoro-1-oxo-5-(1-((1-phenyl-1H-pyrazol-5-yl)methyl)piperidin-4-yl)isoindolin-2-yl)piperidine-2,6-dione], the values for the DC50 in assay [1] and in assay [2] were 2.74 nM and no less than 10000 nM, respectively. For the same compound, the Dmax in assay [1] (setting [3]) turned out to be 89.1%.

Consider `O=C1CCC(N2Cc3c(cc(F)c(CNC(=O)C4CCC(C(F)(F)F)CC4)c3F)C2=O)C(=O)N1` (stereo not drawn) [Compound 78, N-((2-(2,6-dioxopiperidin-3-yl)-4,6-difluoro-1-oxoisoindolin-5-yl)methyl)-4-(trifluoromethyl)cyclohexane-1-carboxamide], for which the DC50 in assay [1] is 24.5 nM; in assay [2] it was no less than 10000 nM. Besides, in assay [1] (setting [3]), the Dmax is 61.7%.

Turning to `COc1ccc(CN2CCC(O)(c3c(F)cc4c(c3F)CN(C3CCC(=O)NC3=O)C4=O)CC2)nc1` (stereo not drawn) [Compound 37, 3-(4,6-difluoro-5-(4-hydroxy-1-((5-methoxypyridin-2-yl)methyl)piperidin-4-yl)-1-oxoisoindolin-2-yl)piperidine-2,6-dione], the values for the DC50 in assay [1] and in assay [2] were 33.2 nM and no less than 10000 nM, respectively. The Dmax in assay [1] (setting [3]) was 62.5%.

As to `CC(C)CCN1CCC(c2c(F)cc3c(c2F)CN(C2CCC(=O)NC2=O)C3=O)CC1` (stereo not drawn) [Compound 113, 3-(4,6-difluoro-5-(1-isopentylpiperidin-4-yl)-1-oxoisoindolin-2-yl)piperidine-2,6-dione], the DC50 in assay [1] is 2.73 nM; in assay [2], no less than 10000 nM. The Dmax in assay [1] (setting [3]) was found to be 82.5%.

Turning to `O=C1CCC(N2Cc3c(cc(F)c(C4(O)CCN(CC5CCCCC5)CC4)c3F)C2=O)C(=O)N1` (stereo not drawn) [Compound 33, 3-(5-(1-(cyclohexylmethyl)-4-hydroxypiperidin-4-yl)-4,6-difluoro-1-oxoisoindolin-2-yl)piperidine-2,6-dione], the results for the DC50 in assay [1] and in assay [2] were 192 nM and no less than 10000 nM, respectively. Besides, in assay [1] (setting [3]), the Dmax is 60.4%.

Take `O=C1CCC(N2Cc3c(cc(F)c(C4(O)CCN(Cc5cccc(C(F)(F)F)c5)CC4)c3F)C2=O)C(=O)N1` (stereo not drawn) [Compound 26, 3-(4,6-difluoro-5-(4-hydroxy-1-(3-(trifluoromethyl)benzyl)piperidin-4-yl)-1-oxoisoindolin-2-yl)piperidine-2,6-dione]: the DC50 is 6.42 nM in assay [1] and no less than 10000 nM in assay [2]. In assay [1] (setting [3]), the Dmax is 78.2%.

Turning to `Cc1cc(Br)cnc1C(=O)N1CCC(c2c(F)cc3c(c2F)CN(C2CCC(=O)NC2=O)C3=O)CC1` (stereo not drawn) [Compound 66, 3-(5-(1-(5-bromo-3-methylpicolinoyl)piperidin-4-yl)-4,6-difluoro-1-oxoisoindolin-2-yl) piperidine-2,6-dione], the results for the DC50 in assay [1] and in assay [2] were 46.1 nM and no less than 10000 nM, respectively. Moreover, the Dmax in assay [1] (setting [3]) turned out to be 74.9%.

On to `O=C1CCC(N2Cc3c(cc(F)c(-c4ccc5c(n4)NCCC5)c3F)C2=O)C(=O)N1` (stereo not drawn) [Compound 94, 3-(4,6-difluoro-1-oxo-5-(5,6,7,8-tetrahydro-1,8-naphthyridin-2-yl)isoindolin-2-yl) piperidine-2,6-dione], for which the DC50 in assay [1] was 655 nM; in assay [2], no less than 10000 nM. The Dmax in assay [1] (setting [3]) worked out at 60.9%.

As for `O=C1CCC(N2Cc3c(cc(F)c(C4(O)CCN(Cc5ccc6ccccc6n5)CC4)c3F)C2=O)C(=O)N1` (stereo not drawn) [Compound 29, 3-(4,6-difluoro-5-(4-hydroxy-1-(quinolin-2-ylmethyl)piperidin-4-yl)-1-oxoisoindolin-2-yl)piperidine-2,6-dione], the DC50 in assay [1] is 6.42 nM; in assay [2], no less than 10000 nM. Besides, the Dmax in assay [1] (setting [3]) was 87%.

With `O=C1CCC(N2Cc3c(cc(F)c(C4(O)CCN(Cc5ccc6nc[nH]c6c5)CC4)c3F)C2=O)C(=O)N1` (stereo not drawn) [Compound 44, 3-[5-[1-(3H-benzimidazol-5-ylmethyl)-4-hydroxy-4-piperidyl]-4,6-difluoro-1-oxo-isoindolin-2-yl]piperidine-2,6-dione], the DC50 in assay [1] was 120 nM; in assay [2] it was no less than 10000 nM. The Dmax in assay [1] (setting [3]) was found to be 82.1%.

For the compound `Cc1ccc(CCN2CCC(c3c(F)cc4c(c3F)CN(C3CCC(=O)NC3=O)C4=O)CC2)cc1` (stereo not drawn) [Compound 111, 3-(4,6-difluoro-5-(1-(4-methylphenethyl)piperidin-4-yl)-1-oxoisoindolin-2-yl)piperidine-2,6-dione], the DC50 in assay [1] is 7.45 nM; in assay [2] it was no less than 10000 nM. Besides, the Dmax in assay [1] (setting [3]) came to 82.7%.

For the compound `CN(CCN1CCC(O)(c2c(F)cc3c(c2F)CN(C2CCC(=O)NC2=O)C3=O)CC1)S(=O)(=O)c1ccccc1` (stereo not drawn) [Compound 40, N-[2-[4-[2-(2,6-dioxo-3-piperidyl)-4,6-difluoro-1-oxo-isoindolin-5-yl]-4-hydroxy-1-piperidyl]ethyl]-N-methyl-benzenesulfonamide], the DC50 was 67.7 nM in assay [1] and no less than 10000 nM in assay [2]. In assay [1] (setting [3]), the Dmax turned out to be 60%.

In the case of `O=C1CCC(N2Cc3c(cc(F)c(CNCc4ccc(C(F)F)cc4)c3F)C2=O)C(=O)N1` (stereo not drawn) [Compound 79, 3-(5-(((4-(difluoromethyl)benzyl)amino)methyl)-4,6-difluoro-1-oxoisoindolin-2-yl)piperidine-2,6-dione], the values for the DC50 in assay [1] and in assay [2] were 162 nM and no less than 10000 nM, respectively. In addition, the Dmax in assay [1] (setting [3]) was determined as 60%.

For `O=C1CCC(N2Cc3c(cc(F)c(C4CCN(CC5CCCC5)CC4)c3F)C2=O)C(=O)N1` (stereo not drawn) [Compound 112, 3-(5-(1-(cyclopentylmethyl)piperidin-4-yl)-4,6-difluoro-1-oxoisoindolin-2-yl)piperidine-2,6-dione], the values for the DC50 in assay [1] and in assay [2] were 3.23 nM and no less than 10000 nM, respectively. For the same compound, the Dmax in assay [1] (setting [3]) turned out to be 84.6%.

On to `O=C1CCC(N2Cc3c(cc(F)c(C4CCN(Cc5cccc6ncsc56)CC4)c3F)C2=O)C(=O)N1` (stereo not drawn) [Compound 64, 3-(5-(1-(benzo[d]thiazol-7-ylmethyl)piperidin-4-yl)-4,6-difluoro-1-oxoisoindolin-2-yl)piperidine-2,6-dione], for which the DC50 in assay [1] was 2.11 nM; in assay [2], no less than 10000 nM. Moreover, the Dmax in assay [1] (setting [3]) is 92.9%.

For the compound `O=C1CCC(N2Cc3c(cc(F)c(C4CCN(CC(c5ccccc5)c5ccccc5)CC4)c3F)C2=O)C(=O)N1` (stereo not drawn) [Compound 10, 3-(5-(1-(2,2-diphenylethyl)piperidin-4-yl)-4,6-difluoro-1-oxoisoindolin-2-yl)piperidine-2,6-dione], the DC50 in assay [1] was 0.202 nM; in assay [2] it was no less than 10000 nM. For the same compound, the Dmax in assay [1] (setting [3]) is 90.7%.

For the compound `Cn1nccc1CN1CCC(c2c(F)cc3c(c2F)CN(C2CCC(=O)NC2=O)C3=O)CC1` (stereo not drawn) [Compound 102, 3-(4,6-difluoro-5-(1-((1-methyl-1H-pyrazol-5-yl)methyl)piperidin-4-yl)-1-oxoisoindolin-2-yl)piperidine-2,6-dione], the DC50 was 0.283 nM in assay [1] and no less than 10000 nM in assay [2]. In assay [1] (setting [3]), the Dmax came to 84.3%.

Regarding `COc1cccc(CN2CCC(O)(c3c(F)cc4c(c3F)CN(C3CCC(=O)NC3=O)C4=O)CC2)c1` (stereo not drawn) [Compound 36, 3-(4,6-difluoro-5-(4-hydroxy-1-(3-methoxybenzyl)piperidin-4-yl)-1-oxoisoindolin-2-yl)piperidine-2,6-dione], the DC50 is 3.77 nM in assay [1] and no less than 10000 nM in assay [2]. Also, the Dmax in assay [1] (setting [3]) came out at 77.7%.
